Source: patent US9850283B2, “Macrocyclic inhibitors of the PD-1/PD-L1 and CD80(B7-1)/PD-L1 protein/protein interactions” (BRISTOL-MYERS SQUIBB COMPANY, priority 2013, dated 2017)
Read-outs that look alike come from different tables or passages of the source. Starred links: 1 amine or outer side, 2 acyl side, 3 side chain; linkers in the order of their positions; H or OH if unused. Positions of bridges follow the written chain, without caps; N, C: chain ends. Non-standard residues stand in square brackets, D forms with d. Residues, ends and D or L forms follow the SMILES beside them. ξ: configuration not given here. Pro(4R-Bn) = O=C(O)[C@@H]1C[C@@H](Cc2ccccc2)CN1; X10 = O=C([C@H](Cc1ccc(F)c(Cl)c1)N[*:1])[*:2]; Phe(4-NH2) = Nc1ccc(C[C@H](N)C(=O)O)cc1; Bta = N[C@@H](Cc1csc2ccccc12)C(=O)O; cisHyp = O=C(O)[C@@H]1C[C@H](O)CN1; Hyp = O=C(O)[C@@H]1C[C@@H](O)CN1; NMeF = CN[C@@H](Cc1ccccc1)C(=O)O; dNMeNle = CCCC[C@@H](NC)C(=O)O; NMeNle = CCCC[C@H](NC)C(=O)O; NMeA = CN[C@@H](C)C(=O)O; Orn = NCCC[C@H](N)C(=O)O; Dab = NCC[C@H](N)C(=O)O; Dap = NC[C@H](N)C(=O)O; ξP = O=C(O)C1CCCN1; Sar = CNCC(=O)O

Tests used:
[1] = target: T1, LK35.2-hPD-L1 cells / PE-labeled PD-1-Ig (Homo sapiens, UniProt Q9NZQ7); test: LK35.2-hPD-L1 cell binding high-content screening assay; assay type: cell-based; conditions: cluster symbol, read-out: CBA IC50 cluster
T1 construct: expressed in transfected cells; host or cells: LK35.2 mouse B cell line
In short: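 Mouse LK35.2 B cells stably overexpressing human PD-L1 were cultured overnight in RPMI with 10% FCS, then given compound and PE-labeled human PD-1-Ig (1 nM final) for 1 h at 37 °C. After three dPBS washes, bound fluorescence was quantified by high-content imaging.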

Human PD-L1/PD-1 = target: T2, Human PD-L1/PD-1 (Homo sapiens, UniProt Q9NZQ7); test: HTRF PD-1-Ig/PD-L1-His binding assay (human PD-L1); conditions: cluster symbol; read-out: HTRF IC50 cluster
T2 construct: made in house; host or cells: HEK293T
In short: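 Readout: time-resolved FRET between Eu cryptate-labeled anti-Ig (1 nM final) and APC-labeled anti-His (20 nM final) antibodies. These detect interaction of Fc-fused PD-1 with His-tagged human PD-L1 in dPBS containing 0.1% BSA and 0.05% Tween-20.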

[2] = cell line of CBA not given (LK35.2-hPD-L1 or 293T-hPD-L1)
[3] = cell binding assay, cell line not given

T2 sequence (Q9NZQ7 with tags, fused parts or gaps): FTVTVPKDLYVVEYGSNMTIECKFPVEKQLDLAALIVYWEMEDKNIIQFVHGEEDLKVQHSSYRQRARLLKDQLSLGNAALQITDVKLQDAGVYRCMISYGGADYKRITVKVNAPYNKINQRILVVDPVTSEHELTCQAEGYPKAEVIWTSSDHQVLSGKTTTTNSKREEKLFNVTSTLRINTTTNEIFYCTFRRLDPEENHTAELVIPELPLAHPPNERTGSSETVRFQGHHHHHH
T1 sequence (Q9NZQ7 19-290): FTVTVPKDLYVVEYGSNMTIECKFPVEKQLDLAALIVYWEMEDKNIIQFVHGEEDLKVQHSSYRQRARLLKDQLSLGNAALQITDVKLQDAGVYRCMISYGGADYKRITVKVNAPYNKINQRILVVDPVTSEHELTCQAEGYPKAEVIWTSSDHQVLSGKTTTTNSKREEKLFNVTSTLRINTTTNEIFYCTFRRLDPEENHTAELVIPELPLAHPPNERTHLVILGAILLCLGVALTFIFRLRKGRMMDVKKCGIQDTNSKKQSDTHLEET

Row | Compound | IC50 [1, 2] [nM] | IC50 (Human PD-L1/PD-1) [nM] | IC50 [1, 3] [nM]
1 | CCCC[C@H]1C(=O)N[C@@H](CCCNC(=N)N)C(=O)N[C@H](C(=O)NCC(N)=O)CSCC(=O)N[C@@H](Cc2ccccc2)C(=O)N(C)[C@@H](C)C(=O)N[C@@H](CC(N)=O)C(=O)N2CCC[C@H]2C(=O)N[C@@H](Cc2cnc[nH]2)C(=O)N[C@@H](CC(C)C)C(=O)N(C)CC(=O)N[C@@H](Cc2c[nH]c3ccccc23)C(=O)N[C@@H](CO)C(=O)N[C@@H](Cc2c[nH]c3ccccc23)C(=O)N[C@@H](C)C(=O)N1C [Example 1057] (HELM PEPTIDE1{[O=C(C[*:3])[*:2]].F.[meA].N.P.H.L.[Sar].W.S.W.A.[CCCC[C@@H](C(=O)[*:2])N(C)[*:1]].R.C.G.[am]}$PEPTIDE1,PEPTIDE1,1:R3-15:R3$$$V2.0) | > 74.3 | > 30.5 | –
2 | CCCC[C@H]1C(=O)N(C)[C@@H](CCCC)C(=O)N[C@@H](CC(C)C)C(=O)N[C@H](C(=O)NCC(N)=O)CSCC(=O)N[C@@H](Cc2ccc(O)cc2)C(=O)N(C)[C@@H](C)C(=O)N[C@@H](CC(N)=O)C(=O)N2CCC[C@H]2C(=O)N[C@@H](Cc2c[nH]cn2)C(=O)N[C@@H](CCC(=O)O)C(=O)N2C[C@H](O)C[C@H]2C(=O)N[C@@H](Cc2c[nH]c3ccccc23)C(=O)N[C@@H](CCN)C(=O)N[C@@H](Cc2c[nH]c3ccccc23)C(=O)N1C [Example 5065] ({CH2CO}-Y[NMeA]NPHE[Hyp]W[Dab]W[NMeNle][NMeNle]LCG-NH2; thioether N-14) | – | 0.385 to 6.74 | 0.158 to 4.71
3 | CCCC[C@H]1C(=O)N(C)[C@@H](CCCC)C(=O)N[C@@H](CCCNC(=N)N)C(=O)N[C@H](C(=O)NCC(N)=O)CSCC(=O)N[C@@H](Cc2ccc(O)cc2)C(=O)N(C)[C@@H](C)C(=O)N[C@@H](CN)C(=O)N2CCC[C@H]2C(=O)N[C@@H](C)C(=O)N[C@@H](CC(C)C)C(=O)N2C[C@@H](O)C[C@H]2C(=O)N[C@@H](Cc2c[nH]c3ccccc23)C(=O)N[C@@H](CO)C(=O)N[C@@H](Cc2c[nH]c3ccccc23)C(=O)N1C [Example 1143] ({CH2CO}-Y[NMeA][Dap]PAL[cisHyp]WSW[NMeNle][NMeNle]RCG-NH2; thioether N-14) | > 74.3 | > 30.5 | –
4 | CCCC[C@H]1C(=O)N(C)CC(=O)N[C@@H](CC(=O)O)C(=O)N[C@@H](C(C)C)C(=O)N(C)[C@@H](Cc2ccccc2)C(=O)N[C@@H](Cc2ccc(N)cc2)C(=O)N(C)CC(=O)N[C@@H](Cc2c[nH]c3ccccc23)C(=O)N[C@@H](Cc2ccc(O)cc2)C(=O)N[C@@H](CC(C)C)C(=O)N[C@H](C(=O)NCC(N)=O)CSCC(=O)N[C@@H](Cc2ccccc2)C(=O)N(C)[C@@H](Cc2ccccc2)C(=O)N1C [Example 3139] ({CH2CO}-F[NMeF][NMeNle][Sar]DV[NMeF][Phe(4-NH2)][Sar]WYLCG-NH2; thioether N-13) | 4.78 to 72.9 | 6.76 to 30.3 | –
5 | CCCC[C@H]1C(=O)N(C)[C@@H](CCCC)C(=O)N[C@@H](CC(=O)O)C(=O)N[C@H](C(=O)NCC(N)=O)CSCC(=O)N[C@@H](Cc2ccccc2)C(=O)N(C)[C@@H](C)C(=O)N[C@@H](CC(N)=O)C(=O)N2CCC[C@H]2C(=O)N[C@@H](Cc2cnc[nH]2)C(=O)N[C@@H](CC(C)C)C(=O)N(C)CC(=O)N[C@@H](Cc2c[nH]c3ccccc23)C(=O)N[C@@H](CO)C(=O)N[C@@H](Cc2c[nH]c3ccccc23)C(=O)N1C [Example 5030] ({CH2CO}-F[NMeA]NPHL[Sar]WSW[NMeNle][NMeNle]DCG-NH2; thioether N-14) | – | > 30.5 | > 74.3
6 | CCCC[C@H]1C(=O)N(C)[C@@H](CCCC)C(=O)N[C@@H](CCCNC(=N)N)C(=O)N[C@H](C(=O)NCC(N)=O)CSCC(=O)N[C@@H](Cc2ccc(O)cc2)C(=O)N(C)[C@@H](C)C(=O)N[C@@H](CC(N)=O)C(=O)N2CCC[C@H]2C(=O)N[C@@H](CN)C(=O)N[C@@H](CC(N)=O)C(=O)N2C[C@H](O)C[C@H]2C(=O)N[C@@H](Cc2c[nH]c3ccccc23)C(=O)N[C@@H](CO)C(=O)N[C@@H](Cc2csc3ccccc23)C(=O)N1C [Example 6028] ({CH2CO}-Y[NMeA]NP[Dap]N[Hyp]WS[Bta][NMeNle][NMeNle]RCG-NH2; thioether N-14) | – | 6.76 to 30.3 | 0.158 to 4.71
7 | CCCC[C@H]1C(=O)N(C)[C@@H](CCCC)C(=O)N[C@@H](C)C(=O)N[C@H](C(=O)NCC(N)=O)CSCC(=O)N[C@@H](Cc2ccc(O)cc2)C(=O)N(C)[C@@H](C)C(=O)N[C@@H](CC(=O)O)C(=O)N2CCC[C@H]2C(=O)N[C@@H](Cc2c[nH]cn2)C(=O)N[C@@H](CCC(=O)O)C(=O)N2C[C@H](Cc3ccccc3)C[C@H]2C(=O)N[C@@H](Cc2c[nH]c3ccccc23)C(=O)N[C@@H](CCN)C(=O)N[C@@H](Cc2c[nH]c3ccccc23)C(=O)N1C [Example 13008] ({CH2CO}-Y[NMeA]DPHE[Pro(4R-Bn)]W[Dab]W[NMeNle][NMeNle]ACG-NH2; thioether N-14) | – | 0.385 to 6.74 | 0.158 to 4.71
8 | CCCC[C@H]1C(=O)N(C)[C@@H](CCCC)C(=O)N[C@@H](CO)C(=O)NC(C(=O)NCC(N)=O)CSCC(=O)N[C@@H](Cc2ccc(O)cc2)C(=O)N(C)[C@@H](C)C(=O)N[C@@H](CC(N)=O)C(=O)N2CCC[C@H]2C(=O)N[C@@H](Cc2cnc[nH]2)C(=O)N[C@@H](CC(C)C)C(=O)N2C[C@H](O)C[C@H]2C(=O)N[C@@H](Cc2c[nH]c3ccccc23)C(=O)N[C@@H](CO)C(=O)N[C@@H](Cc2c[nH]c3ccccc23)C(=O)N1C (stereo partly shown) [Example 9029] | – | 6.76 to 30.3 | 0.158 to 4.71
9 | CCCC[C@H]1C(=O)N(C)[C@@H](CCCC)C(=O)N[C@@H](CCCN)C(=O)N[C@H](C(=O)NCC(N)=O)CSCC(=O)N[C@@H](Cc2ccc(O)cc2)C(=O)N2CC(F)(F)C[C@H]2C(=O)N[C@@H](CC(N)=O)C(=O)N2CCC[C@H]2C(=O)N[C@@H](Cc2cnc[nH]2)C(=O)N[C@@H](CC(C)C)C(=O)N2C[C@H](O)C[C@H]2C(=O)N[C@@H](Cc2c[nH]c3ccccc23)C(=O)N[C@@H](CO)C(=O)N[C@@H](Cc2c[nH]c3ccccc23)C(=O)N1C [Example 1174] | 0.158 to 4.71 | 0.385 to 6.74 | –
10 | CCCC[C@H]1C(=O)N(C)[C@@H](CCCC)C(=O)N[C@@H](CCCNC(=N)N)C(=O)N[C@H](C(=O)NCC(N)=O)CSCC(=O)N[C@@H](Cc2ccc(O)cc2)C(=O)N(C)[C@@H](C)C(=O)N[C@@H](CC(N)=O)C(=O)N2CCC[C@H]2C(=O)N[C@@H](CN)C(=O)N[C@@H](CC(C)C)C(=O)N2C[C@H](O)C[C@H]2C(=O)N[C@@H](Cc2c[nH]c3ccccc23)C(=O)N[C@@H](CC(N)=O)C(=O)N[C@@H](Cc2c[nH]c3ccccc23)C(=O)N1C [Example 6033] ({CH2CO}-Y[NMeA]NP[Dap]L[Hyp]WNW[NMeNle][NMeNle]RCG-NH2; thioether N-14) | – | 0.385 to 6.74 | 0.158 to 4.71
11 | CCCC[C@H]1C(=O)N(C)[C@@H](CCCC)C(=O)N[C@@H](CCCN)C(=O)N[C@H](C(=O)NCC(N)=O)CSCC(=O)N[C@@H](Cc2ccc(O)cc2)C(=O)N(C)[C@@H](C)C(=O)N[C@@H](CC(N)=O)C(=O)N2CCC[C@H]2C(=O)N[C@@H](CN)C(=O)N[C@@H](CC(C)C)C(=O)N2C[C@@H](O)C[C@H]2C(=O)N[C@@H](Cc2c[nH]c3ccccc23)C(=O)N[C@@H](CO)C(=O)N[C@@H](Cc2c[nH]c3ccccc23)C(=O)N1C [Example 1145] ({CH2CO}-Y[NMeA]NP[Dap]L[cisHyp]WSW[NMeNle][NMeNle][Orn]CG-NH2; thioether N-14) | 0.158 to 4.71 | 6.76 to 30.3 | –
12 | CCCC[C@H]1C(=O)N(C)CC(=O)N[C@@H](CC(=O)O)C(=O)N[C@@H](C(C)C)C(=O)N(C)[C@@H](Cc2ccccc2)C(=O)N[C@@H](Cc2ccc(O)cc2)C(=O)N(C)CC(=O)N[C@@H](Cc2c[nH]c3ccccc23)C(=O)N[C@@H](Cc2ccc(O)cc2)C(=O)N[C@@H](CC(C)C)C(=O)N[C@H](C(=O)NCC(N)=O)CSCC(=O)N[C@@H](Cc2ccc(F)c(Cl)c2)C(=O)N(C)[C@@H](Cc2ccccc2)C(=O)N1C [Example 3567] ({CH2CO}-[X10][NMeF][NMeNle][Sar]DV[NMeF]Y[Sar]WYLCG-NH2; thioether N-13) | – | 0.385 to 6.74 | 0.158 to 4.71
13 | C=CCCCC[C@H]1C(=O)N(C)[C@@H](CCCCC=C)C(=O)N[C@@H](CCCNC(=N)N)C(=O)N[C@H](C(=O)NCC(N)=O)CSCC(=O)N[C@@H](Cc2ccccc2)C(=O)N(C)[C@@H](C)C(=O)N[C@@H](CC(N)=O)C(=O)N2CCC[C@H]2C(=O)N[C@@H](Cc2cnc[nH]2)C(=O)N[C@@H](CC(C)C)C(=O)N(C)CC(=O)N[C@@H](Cc2c[nH]c3ccccc23)C(=O)N[C@@H](CO)C(=O)N[C@@H](Cc2c[nH]c3ccccc23)C(=O)N1C [Example 1043] | 4.78 to 72.9 | 6.76 to 30.3 | –
14 | CCCC[C@@H]1C(=O)N(C)[C@H](CCCC)C(=O)N[C@@H](CCCN)C(=O)N[C@@H](C(=O)NCC(N)=O)CSCC(=O)N[C@@H](Cc2ccc(O)cc2)C(=O)N2CCCC2C(=O)N[C@H](CC(=O)O)C(=O)N2CCC[C@H]2C(=O)N[C@H](Cc2c[nH]cn2)C(=O)N[C@@H](CCC(=O)O)C(=O)N2CCCC2C(=O)N[C@H](Cc2c[nH]c3ccccc23)C(=O)N[C@@H](CCN)C(=O)N[C@@H](Cc2c[nH]c3ccccc23)C(=O)N1C (stereo partly shown) [Example 1216] ({CH2CO}-Y[ξP][dD]P[dH]E[ξP][dW][Dab]W[dNMeNle][dNMeNle][Orn][dC]G-NH2; thioether N-14) | > 74.3 | 6.76 to 30.3 | –
